# Source: patent publication US7005449B2, “Tolterodine salts” (Pharmacia & Upjohn Company, priority 2002, dated 2006)
# How the values were obtained:
# [1] = Rotating disk dissolution of tolterodine salts; type: physicochemical; details: extrapolated from carbon chain length trend
# [2] = Rotating disk dissolution of tolterodine salts; type: physicochemical; details: 25° C.; for Rotating disk dissolution rate (RDDR): pH 6, 0.05 M phosphate buffer
# Protocol: Data was collected on the salts. Rotating disk dissolution data was collected at pH 6 in a 0.05 M phosphate buffer at 25° C. on a fiber optic apparatus.
# [3] = traditional tablet administration; cited from earlier work
# [4] = Equilibrium solubility of tolterodine salts (shaking excess salt 24 hours, RP-HPLC)
# Protocol: The resultant solution is centrifuged at 5000 rpm for 30 min in a temperature-controlled centrifuge. The supernatant was diluted and analysed for tolterodine by reversed phase high performance liquid chromatography (RP-HPLC).
compound,measurement,setting,value
CCCCCCCCCCCCCCCC(=O)O.Cc1ccc(O)c(C(CCN(C(C)C)C(C)C)c2ccccc2)c1 (centres unmarked) [palmitic (16 C)],predicted dissolution rate,[1],very low
benzoate,Rotating disk dissolution rate (RDDR),[2],2.1 μg cm^−2s^−1
CCCCCCCCCCCCCC(=O)O.Cc1ccc(O)c(C(CCN(C(C)C)C(C)C)c2ccccc2)c1 (centres unmarked) [myristic (14 C)],predicted dissolution rate,[1],very low
"Cc1ccc(O)c([C@H](CCN(C(C)C)C(C)C)c2ccccc2)c1.O=C(O)C(O)C(O)C(=O)O [tartrate, tolterodine tartrate, reference compound]",rotating disk dissolution rate,[2]; pH 6 media,14 μg cm^−2sec^−1
same,Rotating disk dissolution rate (RDDR),[2],14.0 μg cm^−2s^−1
CCCCCCCCCC(=O)O.Cc1ccc(O)c([C@H](CCN(C(C)C)C(C)C)c2ccccc2)c1 [caprate],Rotating disk dissolution rate (RDDR),[2],0.75 μg cm^−2s^−1
"Cc1ccc(O)c([C@H](CCN(C(C)C)C(C)C)c2ccccc2)c1 [tolterodine, 2-[(1R)-3-(diisopropylamino)-1-phenylpropyl]-4-methylphenol]",time of peak plasma concentration,[3],1 to 2 h
"Cc1ccc(O)c(C(CCN(C(C)C)C(C)C)c2ccccc2)c1.O=C(O)c1cc2ccccc2c(Cc2c(O)c(C(=O)O)cc3ccccc23)c1O [pamoate, tolterodine pamoate]",Rotating disk dissolution rate (RDDR),[2],<0.3 μg cm^−2s^−1
same,Rotating disk dissolution rate (RDDR),[2]; listed as pamoate salt,less than the detection limit of the instrument
maleate,Equilibrium solubility in buffer,"[4]; 0.1 M phosphate buffer pH 7.4, 24 hours, room temperature",4.7 mg/mL
same,final pH in buffer,[4]; final pH of the buffer solubility sample,6.9
same,final pH in water,[4]; final pH of the water solubility sample,5.0
same,Equilibrium solubility in water,"[4]; water, 24 hours, room temperature",1.5 mg/mL
same,Rotating disk dissolution rate (RDDR),[2],4.1 μg cm^−2s^−1
fumarate,Rotating disk dissolution rate (RDDR),[2],2.6 μg cm^−2s^−1
tolterodine heptanoate,Rotating disk dissolution rate (RDDR),[2],2.7 μg cm^−2s^−1
laurate,Rotating disk dissolution rate (RDDR),[2],0.38 μg cm^−2s^−1
